# Measurements taken from patent US9452980B2, “Substituted benzamides” (Hoffmann-La Roche Inc., priority 2009, dated 2016).
# Where a name gives a salt, the structure may show the parent alone. Read-outs that look alike come from different tables or passages of the source.
# Assays:
# [1] = biological target: mouse TAAR1 (Mus musculus (Mouse), UniProt Q923Y8); assay: Radioligand binding assay on mouse TAAR1; details: read-out: Ki (μM) mouse
# How it was run: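 Membranes were from HEK293 cells stably expressing mouse TAAR1. Compounds from 10 pM to 10 μM, in duplicate, competed with [3H]-(S)-4-[(ethyl-phenyl-amino)-methyl]-4,5-dihydro-oxazol-2-ylamine for 1 h at 4 °C. Nonspecific binding was defined with 10 μM unlabelled ligand, and bound radioactivity was read by filtration and scintillation.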
# [2] = biological target: rat TAAR1 (Rattus norvegicus (Rat), UniProt Q923Y9); assay: Radioligand binding assay on rat TAAR1; details: read-out: Ki (μM) rat
# How it was run: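 Membranes from HEK293 cells stably expressing rat TAAR1, with Kd checked per batch by saturation. Competition with ³H-(S)-4-[(ethyl-phenyl-amino)-methyl]-4,5-dihydro-oxazol-2-ylamine, compounds 10 pM–10 μM in duplicate, 1 hr at 4 °C. Filtration then scintillation counting; nonspecific binding defined with 10 μM unlabeled ligand.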
# [3] = mouse TAAR1, HEK-293 membranes, first value of cell mouse/rat
# [4] = rat TAAR1, HEK-293 membranes, second value of cell mouse/rat
# Chain of rat TAAR1 (Q923Y9 whole entry): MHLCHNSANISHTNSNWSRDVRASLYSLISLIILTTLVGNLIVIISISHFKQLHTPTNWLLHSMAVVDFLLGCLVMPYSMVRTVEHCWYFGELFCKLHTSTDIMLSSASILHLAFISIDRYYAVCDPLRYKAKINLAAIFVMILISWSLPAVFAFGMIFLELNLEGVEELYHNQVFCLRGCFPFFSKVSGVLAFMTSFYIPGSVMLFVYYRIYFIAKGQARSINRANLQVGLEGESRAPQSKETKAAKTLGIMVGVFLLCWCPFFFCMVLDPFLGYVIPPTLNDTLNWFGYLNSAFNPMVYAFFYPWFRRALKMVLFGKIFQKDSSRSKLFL
# Chain of mouse TAAR1 (Q923Y8 whole entry): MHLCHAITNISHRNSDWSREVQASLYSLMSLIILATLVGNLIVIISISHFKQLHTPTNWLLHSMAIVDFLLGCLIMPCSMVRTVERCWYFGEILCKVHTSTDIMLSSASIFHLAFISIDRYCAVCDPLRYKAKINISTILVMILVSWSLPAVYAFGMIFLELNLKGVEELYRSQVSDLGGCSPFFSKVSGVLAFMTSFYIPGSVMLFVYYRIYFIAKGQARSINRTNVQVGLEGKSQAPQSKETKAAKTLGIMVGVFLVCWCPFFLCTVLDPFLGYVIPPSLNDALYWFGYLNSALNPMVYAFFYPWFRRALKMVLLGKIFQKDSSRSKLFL
SMILES,"Ki [1, 3] [µM]","Ki [2, 4] [µM]",Ki [2] [µM],Ki [1] [µM]
"O=C(Nc1ccc(C2CNCCO2)cc1)c1ccc(OCc2ccccc2)cc1 (racemic) [Example 192, (RS)-4-(benzyloxy)-N-(4-(morpholin-2-yl)phenyl)benzamide hydrochloride]",0.0052,0.0113,,
"COC(=O)c1ccc(Oc2ccc(C(=O)Nc3ccc(C4CNCCO4)cc3)cc2)cc1Cl (racemic) [Example 213, (RS)-Methyl 2-chloro-4-(4-(4-(morpholin-2-yl)phenylcarbamoyl)phenoxy)benzoate hydrochloride]",0.0012,0.001,,
"O=C(Nc1ccc(CCC2CCCN2)cc1)c1ccc(F)cn1 (racemic) [Example 166, (RS)-5-Fluoro-N-(4-(2-(pyrrolidin-2-yl)ethyl)phenyl)picolinamide hydrochloride]",0.394,0.0212,,
"CC(C(=O)Nc1ccc(C2CCCNC2)cc1)c1cccc(OC(F)(F)F)c1 (racemic) [Example 105, (RS)—N—((RS)-4-Piperidin-3-yl-phenyl)-2-(3-trifluoromethoxy-phenyl)-propionamide]",0.0296,0.0135,,
"CCOc1ccc(C(=O)Nc2ccc([C@H]3CNCCO3)cc2)cc1 [Example 276, (S)-4-Ethoxy-N-(4-(morpholin-2-yl)phenyl)benzamide hydrochloride]",0.0558,,0.0008,
"C#Cc1ccc(C(=O)Nc2ccc(CCC3CCCCN3)cc2)cc1 (racemic) [Example 177, (RS)-4-Ethynyl-N-(4-(2-(piperidin-2-yl)ethyl)phenyl)benzamide hydrochloride]",0.114,0.0067,,
"O=C(Nc1ccc([C@@H]2CCCNC2)cc1)c1ccc(Cl)cn1 [Example 168, (S)-5-Chloro-N-(4-(piperidin-3-yl)phenyl)picolinamide hydrochloride]",,0.0026,,0.608
"O=C(Nc1ccc(C2CNCCO2)cc1)c1ccc(Cl)nc1 (racemic) [Example 193, (RS)-6-chloro-N-(4-(morpholin-2-yl)phenyl)nicotinamide hydrochloride]",0.0406,,0.0034,
"O=C(Nc1ccc([C@@H]2CCCNC2)cc1)c1ccc(C(F)(F)F)nc1 [Example 242, (S)—N-(4-(Piperidin-3-yl)phenyl)-6-(trifluoromethyl)nicotinamide hydrochloride]",,,0.0089,0.037
"O=C(Nc1ccc([C@H]2CCCNC2)cc1)c1ccc(Cl)nc1 [Example 161, (R)-6-Chloro-N-(4-(piperidin-3-yl)phenyl)nicotinamide hydrochloride]",,0.0101,,0.0403
"O=C(Nc1ccc([C@@H]2CCCNC2)cc1)c1cccc(C(F)(F)F)c1 [Example 234, (S)—N-(4-(Piperidin-3-yl)phenyl)-3-(trifluoromethyl)benzamide hydrochloride]",,,0.001,0.0217
"O=C(Nc1ccc(Cl)cc1)Nc1ccc(CCC2CCCNC2)cc1 (racemic) [Example 119, (RS)-1-(4-Chloro-phenyl)-3-[4-(2-piperidin-3-yl-ethyl)-phenyl]-urea hydrochloride]",0.0365,0.0018,,
"CCCc1ccc(C(=O)Nc2ccc([C@@H]3CCCNC3)cc2)cn1 [Example 289, (S)—N-(4-(Piperidin-3-yl)phenyl)-6-propylnicotinamide]",0.143,,0.0027,
"CSc1cccc(C(=O)Nc2ccc([C@@H]3CCCNC3)cc2)c1 [Example 259, (S)-3-(Methylthio)-N-(4-(piperidin-3-yl)phenyl)benzamide]",0.044,,0.0009,
"O=C(Nc1ccc(C2CCNC2)cc1)OCc1ccc(F)cc1 (racemic) [Example 47, (RS)-(4-Pyrrolidin-3-yl-phenyl)-carbamic acid 4-fluoro-benzyl ester hydrochloride]",0.0019,0.0048,,
"O=C(Nc1ccc([C@@H]2CCCNC2)cc1)OC1Cc2ccccc2C1 [Example 258, (S)-2,3-Dihydro-1H-inden-2-yl 4-(piperidin-3-yl)phenylcarbamate 2,2,2-trifluoroacetate]",,0.0062,,0.0225
"CCSc1ccc(C(=O)Nc2ccc([C@@H]3CCCNC3)cc2)cc1 [Example 237, (S)-4-(Ethylthio)-N-(4-(piperidin-3-yl)phenyl)benzamide hydrochloride]",0.0677,0.0008,,
"O=C(Nc1ccc([C@H]2CNCCO2)cc1)c1cc(Cl)nc(Cl)c1 [Example 271, (S)-2,6-Dichloro-N-(4-(morpholin-2-yl)phenyl)isonicotinamide hydrochloride]",,,0.004,0.0067
"CC(CO)(CCl)COc1ccc(C(=O)Nc2ccc(C3CNCCO3)cc2)cc1 (racemic) [Example 220, (RS)-4-(2-Chloromethyl-3-hydroxy-2-methyl-propoxy)-N-(4-morpholin-2-yl-phenyl)-benzamide]",0.0435,0.0024,,
"CCSc1cccc(C(=O)Nc2ccc([C@@H]3CCCNC3)cc2)c1 [Example 246, (S)-3-(Ethylthio)-N-(4-(piperidin-3-yl)phenyl)benzamide]",0.0151,0.0012,,
"CO[C@H]1CC[C@@H](C(=O)Nc2ccc(C3CNCCO3)cc2)CC1 (mixture of isomers) [Example 254, cis-(RS)-4-Methoxy-N-(4-(morpholin-2-yl)phenyl)cyclohexanecarboxamide hydrochloride]",2.82,0.726,,
"O=C(Nc1ccc(CCC2CCCCN2)cc1)c1ccc(Cl)cc1 (racemic) [Example 169, (RS)-4-Chloro-N-(4-(2-(piperidin-2-yl)ethyl)phenyl)benzamide hydrochloride]",0.0607,0.0027,,
"COc1cc(C(=O)Nc2ccc([C@H]3CCCNC3)cc2)ccc1Cl [Example 200, (R)-4-Chloro-3-methoxy-N-(4-(piperidin-3-yl)phenyl)benzamide hydrochloride]",0.0039,0.0022,,
"Cc1ccc(C(=O)Nc2ccc([C@H]3CCCNC3)cc2)cn1 [Example 264, (R)-6-Methyl-N-(4-(piperidin-3-yl)phenyl)nicotinamide hydrochloride]",0.297,0.0143,,
"O=C(Nc1ccc(C2CCNC2)cc1)OC1CCC(F)(F)CC1 (racemic) [Example 45, (RS)-(4-Pyrrolidin-3-yl-phenyl)-carbamic acid 4,4-difluoro-cyclohexyl ester]",0.0131,0.0077,,
"O=C(Nc1ccc(C2CCN(Cc3ccccc3)C2)cc1)c1ccc(Cl)cc1 (racemic) [Example 34, (RS)—N-[4-(1-Benzyl-pyrrolidin-3-yl)-phenyl]-4-chloro-benzamide]",0.0269,0.214,,
"Cc1cccc(C(=O)Nc2ccc([C@@H]3CCCNC3)cc2)c1 [Example 253, (S)-3-Methyl-N-(4-(piperidin-3-yl)phenyl)benzamide]",,0.0035,,0.36
"O=C(Nc1ccc(C2CNCCO2)cc1)Nc1ccc(C(F)(F)F)cc1 (racemic) [Example 291, (RS)-1-(4-(Morpholin-2-yl)phenyl)-3-(4-(trifluoromethyl)phenyl)urea hydrochloride]",0.0012,,0.0017,
